Target: IL-2Rαβ (Homo sapiens, UniProt P01589+P14784)
Details: relative to IL-2 as standard
Description: The term “CD-122-biased cytokine agonist”, as used herein, refers to an agonist that has a greater affinity for binding to IL-2Rβ than to IL-2Rαβ.

IL-2Rαβ, sequence (P01589 22-240 limits assumed): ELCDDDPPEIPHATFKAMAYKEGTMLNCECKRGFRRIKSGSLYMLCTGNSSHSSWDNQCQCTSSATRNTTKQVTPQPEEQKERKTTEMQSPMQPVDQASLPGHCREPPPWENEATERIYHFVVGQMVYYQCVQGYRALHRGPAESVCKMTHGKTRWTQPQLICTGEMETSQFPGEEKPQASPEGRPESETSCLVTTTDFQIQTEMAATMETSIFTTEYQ
IL-2Rαβ, sequence (P14784 27-240 limits assumed): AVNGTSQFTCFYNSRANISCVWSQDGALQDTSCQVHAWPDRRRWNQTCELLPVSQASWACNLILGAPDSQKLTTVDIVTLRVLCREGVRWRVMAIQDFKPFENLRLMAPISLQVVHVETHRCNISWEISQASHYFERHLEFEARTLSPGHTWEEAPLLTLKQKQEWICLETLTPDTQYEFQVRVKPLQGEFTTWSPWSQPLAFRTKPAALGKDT

- decrease in affinity to IL-2Rαβ relative to IL-2: ~60 fold
Substance: (2,7-(bis-methoxyPEG10kD-carboxyamide)(9H-fluorene-9-yl)methyl N-carbamate)6avginterleukin-2 [bempegaldesleukin]

Source: patent publication US20210355223A1, “Combinations for Treating Cancer” (Pfizer Inc., priority 2018, published 2021)
